Source: patent US12629355B2, “Drug inhibitor against migration and invasion of cancer cells and methods of treating against metastasis of cancer cells” (HOWARD UNIVERSITY, priority 2019, dated 2026)

Legend:
Type in all cases: cell-based
[1] = tested on: pY397-FAK; assay: pY397-FAK expression, immunofluorescence (FIG. 15); details: U251 cells, 96 h, 5 ng/ml TGF-beta
Source text: (§1) As to FIGS. 14 and 15, in order to evaluate the effect of a representative compound (SD 29-14) as a drug for inducing functional inactivation of RACK1 on the FAK phosphorylation, the drug was used in testing with breast cancer cells (MCF7, FIG. 14) and with glioblastoma cancer cells (U251, FIG. 15). In this immunofluorescence experiment, the pY397-FAK expressing cells were stained with FITC tagged secondary antibody (green) and RACK1 was stained with TRITC tagged secondary antibody (red). Here 5 ng/ml TGFbeta was used to induce cell migration. […] As discussed above, without the pY397-FAK present, the connection between the ECM and cell interiors will be disrupted which will inhibit the cell's potential to migrate by initiating the cell's adhesion to the ECM.
(§2) As to FIGS. 14 and 15, and the methods, the immunofluorescence experiments are essentially same as described with reference to FIG. 9 with a slight modification in the duration of the drug treatment. The cancer cells (MCF7 or U251) were incubated with a drug (SD 29-14) or with DMSO (left panel) for 96 h in the presence of 5 ng/ml TGF-beta. After indicated incubation period, the cells were fixed and stained with antibody as described for FIG. 9 methods.

[2] = tested on: pY397-FAK; assay: pY397-FAK expression, immunofluorescence (FIG. 14); details: MCF7 cells, 96 h, 5 ng/ml TGF-beta
Source text: as §1, §2

[3] = biological target: T1, RACK1A Y248 phosphorylation (Arabidopsis thaliana, UniProt O24456); assay: Stress hormone (ABA) induced RACK1A Y248 phosphorylation in Arabidopsis seedlings, western blot (FIG. 1); details: 10 uM ABA, 12 hours
T1 construct: from tissue; host or cells: one-week old Arabidopsis seedlings (whole-seedling lysate)
Source text: The results of lab experiment establish the compounds identified by in silico screen to prevent RACK1 Y248 phosphorylation can inhibit RACK1 Y248 phosphorylation and confirm their utility in their application in RACK1 mediated cellular pathways. Y248 phosphorylation has previously been identified as a key event needed for RACK1 mediated scaffolding activities by regulating protein-protein interactions in plants. The corresponding residue in human RAKI is also a key requirement for scaffolding activities needed at the receptor level during the invasion and migration of cancer cells. […] The knock-out plant did maintain both the RACK1B protein and the RACK1C protein, but the antibody was raised to detect the RACK1A Y248 phosphorylation only.
As to FIG. 1, since RACK1 is a regulator of plant stress hormone Abscisic acid (ABA) (Guo et al., 2009), one-week old Arabidopsis seedlings were treated with 10 uM of ABA in the presence/absence of the inhibitor compounds for 12 hours in a growth chamber (overnight) at 22 C mostly in the night dark. Lysates isolated in buffer (Cell Signaling, MA) supplemented with plant protease inhibitor (Sigma-Aldrich), Protein Tyrosine phosphatase inhibitors (Santa Cruz Biotechnology, TX), and N-Ethylamaleimide (Sigma-Aldrich) at 25 mM to inhibit de-sumoylation. […]

[4] = tested on: U251 cells; assay: Migration through Matrigel, cell shape differentiation (FIG. 16-19)
Procedure: Within 24 h of the placement of the cells on the matrigel, the cells were able to migrate through the matrigel and were captured on the glass coverslip beneath the matrigel layer.
The cells are labeled with an antibody (pY397-FAK) and detected with a rabbit-TRITC secondary antibody. The antibody staining allowed to visualize the cells clearly but the autofluorescence of the Matrigel made it hard to pinpoint the precise localization of the pY397-FAK protein.
As to FIG. 19, and related methods, freshly harvested 10^5 cells in MEM no serum media+/−drugs (500 μl) placed on coverslip covered with 200 μl of 1:12 matrigel diluted with MEM serum free media in a 24 well plate. After 24 h, the matrigel was carefully removed by tilting wells and drawing from the tilted side of the wells and washing thoroughly with PBS to remove the matrigel completely (all crumbs removed as their auto fluorescence makes background during imaging) and then were fixed 10 minutes with 4% paraformaldehyde. Washed 2× with PBS; use 5% Urea to treat the cells at 95 C for 10 minutes, wash 2×PBS; permeabilize with 0.5% saponin in PBS; block cells with 3% BSA in PBST for 30 min; Overnight Primary antibody (ThermoFisher Cat #70025-pFAK397 rabbit at 1:250) in 1% BSA in PBST at 4 C, secondary (Rabbit-TRITC) also 1% BSA in PBST for one hour (1:1000).

[5] = tested on: U251 cells; assay: Wound migration assay (FIG. 9); details: TGF, 0 h and 14 h after wounding
Source text: During tumorigenesis, the epithelial-mesenchymal transition (EMT) plays a crucial role in migration and invasion of various cancers. EMT plays an essential role in tumor invasiveness and metastasis in cancer progression. Invasiveness (metastasis) of cancers is associated with a critical physiological process in which epithelial cells transition to mesenchymal transition or differentiation (EMT). Epithelial cells are not regarded as motile. However, in EMT, epithelial cells lose their epithelial characteristics, including their polarity (apical-basal polarity) and specialized cell-cell junctions, to acquire motility (migratory ability) behavior to become invasive mesenchymal cells, (e.g., Qu et al., Int. J. Clin. Exp. Med., 10 (6): 9019-9028 (2017); Xu et al., Cell Res. 19:156-172 (2009)). The motile mesenchymal cells can move (migrate) into surrounding tissue, even remote tissue. […] A wound was created by sliding a tip of a plastic pipette on the surface of almost 100 percent confluent cells and the size of the wound was measured at 0 h and after 14 h of wound creation. […]
In FIG. 10 and FIG. 11, U251 cells were plated in six-well plates and were allowed to reach about 90%-100% density. […] The size of wound was measured under a microscope at 0 and 14 h after wounding.

T1 sequence (O24456 whole entry): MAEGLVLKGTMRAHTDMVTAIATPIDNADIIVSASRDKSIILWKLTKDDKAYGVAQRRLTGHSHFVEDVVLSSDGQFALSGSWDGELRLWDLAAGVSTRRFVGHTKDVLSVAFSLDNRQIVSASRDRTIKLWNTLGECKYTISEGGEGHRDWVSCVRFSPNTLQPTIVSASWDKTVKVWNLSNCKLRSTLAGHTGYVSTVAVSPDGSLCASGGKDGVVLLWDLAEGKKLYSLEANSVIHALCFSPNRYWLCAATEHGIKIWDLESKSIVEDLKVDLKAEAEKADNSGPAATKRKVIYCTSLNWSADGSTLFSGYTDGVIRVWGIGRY

Nn1c(S)nnc1-c1cc(Cl)cc(Cl)c1 [SD 29-14]
expression of pY397-FAK at the cell protrusions [1]: almost completely inhibited
expression of pY397-FAK at the cell protrusions [2]: almost completely inhibited
RACK1A Y248 phosphorylation with stress hormone present [3]: prevents Y248 phosphorylation
filipodia, invadopodia, lamellipodia structures and cell-cell adhesion during invasion through matrigel ([4]; 10 μM, 24 h (FIG. 17)): those structures where inhibited and the cells mostly maintained their cell-cell adhesion
filipodia, invadopodia, lamellipodia structures and cell-cell adhesion during invasion through matrigel ([4]; 100 μM, 24 h (FIG. 18)): those structures where inhibited and the cells mostly maintained their cell-cell adhesion
cell migration into wound [5]: the cells failed to migrate to cover the clear area
